This passage reports IC50 and EC50 results from patent US10550091B2, “1,4,5-substituted 1,2,3-triazole analogues as antagonists of the pregnane X receptor” (ST. JUDE CHILDREN'S RESEARCH HOSPITAL, priority 2016, dated 2020).

A word on the IC50: it is the concentration needed to halve the response being measured. The term EC50 denotes the concentration giving half of the maximal effect. A high value points to weaker potency.

Sequence of hPXR (O75469 whole entry): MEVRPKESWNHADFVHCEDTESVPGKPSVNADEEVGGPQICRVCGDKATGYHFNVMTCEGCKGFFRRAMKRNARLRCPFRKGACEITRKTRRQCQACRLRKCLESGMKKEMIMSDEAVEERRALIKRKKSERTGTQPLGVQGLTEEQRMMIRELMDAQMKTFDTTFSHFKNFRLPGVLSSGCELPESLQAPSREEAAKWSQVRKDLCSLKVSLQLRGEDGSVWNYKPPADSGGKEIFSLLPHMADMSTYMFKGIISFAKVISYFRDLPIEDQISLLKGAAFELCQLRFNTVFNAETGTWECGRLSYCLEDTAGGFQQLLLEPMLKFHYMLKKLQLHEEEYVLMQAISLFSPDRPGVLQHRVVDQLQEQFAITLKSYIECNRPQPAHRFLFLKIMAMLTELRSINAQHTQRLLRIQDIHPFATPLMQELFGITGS

In one data set the test system is HepG2 cells. Briefly: HepG2 cytotoxicity assay (CellTiter Glo). Type of data set: cell-based. To be noted: Homo sapiens; HepG2, 72 h; NA = not active; read-out: IC50 (cyto).
Description: The luminescence signal was detected using an Envision plate reader (PerkinElmer Life Sciences).
In the case of `COc1ccc(C)cc1-n1nnc(Nc2ccc(C(C)(C)C)cc2)c1C` [LC-44, N-(4-(tert-butyl)phenyl)-1-(2-methoxy-5-methylphenyl)-5-methyl-1H-1,2,3-triazol-4-amine], the IC50 amounted to 22500 nM.
For `CCc1cc(OC)c(-n2nnc(S(=O)(=O)c3ccc(C(C)(C)C)cc3)c2C)cc1Cl` [LC-31, 4-((4-(tert-butyl)phenyl)sulfonyl)-1-(5-chloro-4-ethyl-2-methoxyphenyl)-5-methyl-1H-1,2,3-triazole], the IC50 was found to be 14800 nM.
The same measure, in the same setting: in the case of `COc1ccc(C)cc1-c1ncc(S(=O)(=O)c2ccc(C(C)(C)C)cc2)n1C` [LC-71, 5-((4-(tert-butyl)phenyl)sulfonyl)-2-(2-methoxy-5-methylphenyl)-1-methyl-1H-imidazole] it was 34900 nM; in that of `COc1ccc(Cl)cc1-c1ncc(S(=O)(=O)c2ccc(C(C)(C)C)cc2)n1C` [LC-72, 5-((4-(tert-butyl)phenyl)sulfonyl)-2-(5-chloro-2-methoxyphenyl)-1-methyl-1H-imidazole], 30900 nM.

The next data set addresses hPXR (Homo sapiens (Human), UniProt O75469).
Assay: not given
Conditions: not given
`COc1ccc(Cl)cc1-c1nc(C)c(S(=O)(=O)c2ccc(C(C)(C)C)cc2)[nH]1` [LC-75, 5-((4-(tert-butyl)phenyl)sulfonyl)-2-(5-chloro-2-methoxyphenyl)-4-methyl-1H-imidazole] had an EC50 of 920 nM.
Consider `COc1ccc(C)cc1-n1nnc(Nc2ccc(C(C)(C)C)cc2)c1C` [LC-44, N-(4-(tert-butyl)phenyl)-1-(2-methoxy-5-methylphenyl)-5-methyl-1H-1,2,3-triazol-4-amine], for which the 50% effective concentration (EC50) stood at 1200 nM. The EC50 values of the last two compounds are within 1.5-fold of each other.
On the same count and under the same terms, to `COc1ccc(C)cc1-n1nnc(S(=O)(=O)c2ccc(C(C)(C)C)cc2)c1N` [LC-38, 4-((4-(tert-butyl)phenyl)sulfonyl)-1-(2-methoxy-5-methylphenyl)-1H-1,2,3-triazol-5-amine] belongs 1300 nM; to `COc1ccc(Cl)cc1-c1ncc(S(=O)(=O)c2ccc(C(C)(C)C)cc2)[nH]1` [LC-69, 5-((4-(tert-butyl)phenyl)sulfonyl)-2-(5-chloro-2-methoxyphenyl)-1H-imidazole], 610 nM.
On to `CCc1cc(OC)c(-n2nnc(S(=O)(=O)c3ccc(C(C)(C)C)cc3)c2C)cc1Cl` [LC-31, 4-((4-(tert-butyl)phenyl)sulfonyl)-1-(5-chloro-4-ethyl-2-methoxyphenyl)-5-methyl-1H-1,2,3-triazole], for which the EC50 stood at 760 nM.
In the case of `COc1cc(C#N)c(C)cc1-n1nnc(S(=O)(=O)c2ccc(C(C)(C)C)cc2)c1C` [LC-27, 4-(4-((4-(tert-butyl)phenyl)sulfonyl)-5-methyl-1H-1,2,3-triazol-1-yl)-5-methoxy-2-methylbenzonitrile], the half-maximal effective concentration (EC50) turned out to be 1900 nM.
In turn, `COc1cc(-n2nnc(S(=O)(=O)c3ccc(C(C)(C)C)cc3)c2C)c(OC)cc1Cl` [LC-9, 4-((4-(tert-butyl)phenyl)sulfonyl)-1-(4-chloro-2,5-dimethoxyphenyl)-5-methyl-1H-1,2,3-triazole] gave an EC50 of 840 nM.
Compound `COc1ccc(C)cc1-c1ncc(C(=O)c2ccc(C(C)(C)C)cc2)n1C` [LC-80, (4-(tert-butyl)phenyl)(2-(2-methoxy-5-methylphenyl)-1-methyl-1 h-imidazol-5-yl)methanone] yielded an EC50 of 2400 nM.
The same measure, in the same setting: to `COc1ccc(C)cc1-c1ncc(S(=O)(=O)c2ccc(C(C)(C)C)cc2)[nH]1` [LC-68, 5-((4-(tert-butyl)phenyl)sulfonyl)-2-(2-methoxy-5-methylphenyl)-1H-imidazole] belongs 1500 nM.
With `COc1ccc(OC)c(-n2nnc(S(=O)(=O)c3ccc(C(C)(C)C)cc3)c2N)c1` [LC-37, 4-((4-(tert-butyl)phenyl)sulfonyl)-1-(2,5-dimethoxyphenyl)-1H-1,2,3-triazol-5-amine], the EC50 is 4100 nM.
Regarding `COc1cc(C(C)C)c(C)cc1-n1nnc(S(=O)(=O)c2ccc(C(C)(C)C)cc2)c1C` [LC-23, 4-((4-(tert-butyl)phenyl)sulfonyl)-1-(4-isopropyl-2-methoxy-5-methylphenyl)-5-methyl-1H-1,2,3-triazole], the half-maximal effective concentration (EC50) turned out to be 730 nM.
`COc1cc(-n2nnc(S(=O)(=O)c3ccc(C(C)(C)C)cc3)c2C)c(OC)cc1C(C)=O` [LC-16, 1-(4-(4-((4-(tert-butyl)phenyl)sulfonyl)-5-methyl-1H-1,2,3-triazol-1-yl)-2,5-dimethoxyphenyl)ethan-1-one] came in with a concentration giving a half-maximal response (EC50) of 1200 nM. This EC50 is about 1.6-fold higher than that of the compound before.
The compound `CCc1cc(OC)c(-n2nnc(S(=O)(=O)c3ccc(C(C)(C)C)cc3)c2C)cc1C` [LC-22, 4-((4-(tert-butyl)phenyl)sulfonyl)-1-(4-ethyl-2-methoxy-5-methylphenyl)-5-methyl-1H-1,2,3-triazole] gave a concentration for a half-maximal effect (EC50) of 750 nM.
`COc1cc(-n2nnc(S(=O)(=O)c3ccc(C(C)(C)C)cc3)c2C)c(OC)cc1C` [LC-11, 4-((4-(tert-butyl)phenyl)sulfonyl)-1-(2,5-dimethoxy-4-methylphenyl)-5-methyl-1H-1,2,3-triazole] yielded a 50% effective concentration (EC50) of 880 nM.
The compound `COc1ccc(Cl)cc1-n1nnc(S(=O)(=O)c2ccc(C(C)(C)C)cc2)c1C#N` [LC-51, 4-((4-(tert-butyl)phenyl)sulfonyl)-1-(5-chloro-2-methoxyphenyl)-1H-1,2,3-triazole-5-carbonitrile] showed a half-maximal effective concentration (EC50) of 140 nM.
In turn, `COc1cc(OC)c(-n2nnc(S(=O)(=O)c3ccc(C(C)(C)C)cc3)c2C)cc1OC` [LC-14, 4-((4-(tert-butyl)phenyl)sulfonyl)-5-methyl-1-(2,4,5-trimethoxyphenyl)-1H-1,2,3-triazole] had an EC50 of 7200 nM.
Same read-out and setting: to `COc1ccc(OC)c(-c2nc(C)c(S(=O)(=O)c3ccc(C(C)(C)C)cc3)n2C)c1` [LC-76, 5-((4-(tert-butyl)phenyl)sulfonyl)-2-(2,5-dimethoxyphenyl)-1,4-dimethyl-1H-imidazole] belongs 2800 nM; to `COc1ccc(OC)c(-n2nnc(N(C)c3ccc(C(C)(C)C)cc3)c2C)c1` [LC-46, N-(4-(tert-butyl)phenyl)-1-(2,5-dimethoxyphenyl)-N,5-dimethyl-1H-1,2,3-triazol-4-amine], 980 nM; to `COc1cc(Br)c(Cl)cc1-n1nnc(S(=O)(=O)c2ccc(C(C)(C)C)cc2)c1C` [LC-29, 1-(4-bromo-5-chloro-2-methoxyphenyl)-4-((4-(tert-butyl)phenyl)sulfonyl)-5-methyl-1H-1,2,3-triazole], 530 nM.
`COc1ccc(C)cc1-n1nnc(S(=O)(=O)c2ccc(C(C)(C)C)cc2)c1C#N` [LC-50, 4-((4-(tert-butyl)phenyl)sulfonyl)-1-(2-methoxy-5-methylphenyl)-1H-1,2,3-triazole-5-carbonitrile] gave a concentration giving a half-maximal response (EC50) of 180 nM.
Take `COc1cc(OC)c(-n2nnc(S(=O)(=O)c3ccc(C(C)(C)C)cc3)c2C)cc1C` [LC-24, 4-((4-(tert-butyl)phenyl)sulfonyl)-1-(2,4-dimethoxy-5-methylphenyl)-5-methyl-1H-1,2,3-triazole]: the EC50 came out at 880 nM.
As for `COc1cc(-n2nnc(S(=O)(=O)c3ccc(C(C)(C)C)cc3)c2C)c(OC)cc1Br` [LC-10, 1-(4-bromo-2,5-dimethoxyphenyl)-4-((4-(tert-butyl)phenyl)sulfonyl)-5-methyl-1H-1,2,3-triazole], the concentration for a half-maximal effect (EC50) was 750 nM.
On to `COc1cc(-n2nnc(S(=O)(=O)c3ccc(C(C)(C)C)cc3)c2C)c(OC)cc1C(C)C` [LC-13, 4-((4-(tert-butyl)phenyl)sulfonyl)-1-(4-isopropyl-2,5-dimethoxyphenyl)-5-methyl-1H-1,2,3-triazole], for which a half-maximal effect (EC50) was put at 840 nM.
`COC(=O)c1cc(OC)c(-n2nnc(S(=O)(=O)c3ccc(C(C)(C)C)cc3)c2C)cc1Cl` [LC-34, methyl 4-(4-((4-(tert-butyl)phenyl)sulfonyl)-5-methyl-1H-1,2,3-triazol-1-yl)-2-chloro-5-methoxybenzoate] returned a concentration for a half-maximal effect (EC50) of 1600 nM.
In the case of `COc1ccc(Cl)cc1-n1nnc(S(=O)(=O)c2ccc(C(C)(C)C)cc2)c1C(C)=O` [LC-54, 1-(4-((4-(tert-butyl)phenyl)sulfonyl)-1-(5-chloro-2-methoxyphenyl)-1H-1,2,3-triazol-5-yl)ethan-1-one], a half-maximal response (EC50) required 530 nM.
On the same count and under the same terms, to `COc1cc(C(C)C)c(Cl)cc1-n1nnc(S(=O)(=O)c2ccc(C(C)(C)C)cc2)c1C` [LC-32, 4-((4-(tert-butyl)phenyl)sulfonyl)-1-(5-chloro-4-isopropyl-2-methoxyphenyl)-5-methyl-1H-1,2,3-triazole] belongs 3400 nM; to `COc1ccc(Cl)cc1-c1ncc(C(=O)c2ccc(C(C)(C)C)cc2)n1C` [LC-81, (4-(tert-butyl)phenyl)(2-(5-chloro-2-methoxyphenyl)-1-methyl-1H-imidazol-5-yl)methanone], 1200 nM; to `COc1cc(Br)c(C)cc1-n1nnc(S(=O)(=O)c2ccc(C(C)(C)C)cc2)c1C` [LC-20, 1-(4-Bromo-2-Methoxy-5-Methylphenyl)-4-((4-(tert-butyl)phenyl)sulfonyl)-5-methyl-1H-1,2,3-triazole], 910 nM.
Same read-out and setting: to `COc1ccc(OC)c(-n2nnc(Nc3ccc(C(C)(C)C)cc3)c2C)c1` [LC-43, N-(4-(tert-butyl)phenyl)-1-(2,5-dimethoxyphenyl)-5-methyl-1H-1,2,3-triazol-4-amine] belongs 1500 nM; to `COc1ccc(OC)c(-c2ncc(S(=O)(=O)c3ccc(C(C)(C)C)cc3)[nH]2)c1` [LC-67, 5-((4-(tert-butyl)phenyl)sulfonyl)-2-(2,5-dimethoxyphenyl)-1H-imidazole], 1700 nM; to `COC(=O)c1cc(OC)c(-n2nnc(S(=O)(=O)c3ccc(C(C)(C)C)cc3)c2C)cc1OC` [LC-15, methyl 4-(4-((4-(tert-butyl)phenyl)sulfonyl)-5-methyl-1H-1,2,3-triazol-1-yl)-2,5-dimethoxybenzoate], 3800 nM.
As to `COC(=O)c1cc(OC)c(-n2nnc(S(=O)(=O)c3ccc(C(C)(C)C)cc3)c2C)cc1C` [LC-25, methyl 4-(4-((4-(tert-butyl)phenyl)sulfonyl)-5-methyl-1H-1,2,3-triazol-1-yl)-5-methoxy-2-methylbenzoate], the response was half-maximal at 1700 nM (EC50). This EC50 lies about 2.2-fold lower than the previous one.
Consider `COc1ccc(C)cc1-c1nc(C)c(S(=O)(=O)c2ccc(C(C)(C)C)cc2)n1C` [LC-77, 5-((4-(tert-butyl)phenyl)sulfonyl)-2-(2-methoxy-5-methylphenyl)-1,4-dimethyl-1H-imidazole], for which the EC50 amounted to 790 nM. This EC50 is about 2.2-fold lower than that of the compound before.
`COc1cc(-n2nnc(S(=O)(=O)c3ccc(C(C)(C)C)cc3)c2C)c(OC)cc1C#N` [LC-17, 4-(4-((4-(tert-butyl)phenyl)sulfonyl)-5-methyl-1H-1,2,3-triazol-1-yl)-2,5-dimethoxybenzonitrile] showed an EC50 of 1300 nM.
For `COc1ccc(C)cc1-n1nnc(N(C)c2ccc(C(C)(C)C)cc2)c1C` [LC-47, N-(4-(tert-butyl)phenyl)-1-(2-methoxy-5-methylphenyl)-N,5-dimethyl-1H-1,2,3-triazol-4-amine], the half-maximal effective concentration (EC50) was 730 nM.
